Columns and labels:
HacaT cells = test: Inhibition of necrosis of HacaT cells induced by TNF-α (CellTiter-Glo); type: cell-based; conditions: Homo sapiens, TNF-α 100 ng/ml + AT-406 1 μM + z-VAD-FMK 20 μM, 24 h
Experimental: […] (purchased from ATCC) in logarithmic growth phase were collected and resuspended in 1640 medium, and then the cell concentration was adjusted to 20 cells/μL, to obtain cell suspension, which was seeded in 384-well plate, with 20 μL cell suspension for each well. After the cells were cultured in a 5% CO2 incubator at 37° C. for 24 h, the test compound of the present invention and the control compound were diluted to the corresponding pre-determined concentration using the medium, and added to the 384-well plate at 5 µL/well. […] Then, 30 μL of CellTiter-Glo luminescent solution was added to each well, and shaken for 2 min. After standing at room temperature for 10 min, the absorbance was measured using ELISA. […] A is the group without necrosis-inducing agents, and B is the group with necrosis-inducing agents.

U937 cells = test: Inhibition of necrosis of U937 cells induced by TNF-α (CellTiter-Glo); type: cell-based; conditions: Homo sapiens, U-937; TNF-α 100 ng/ml + AT-406 1 μM + z-VAD-FMK 20 μM, 24 h
Experimental: (§1) After the cells were incubated in a 5% CO2 incubator at 37° C. for 24 h, the test compound of the present invention and the control compound were diluted to the corresponding pre-determined concentration using the medium, and added to the 384-well plate at 5 μL/well. […] Then, 30 μL of CellTiter-Glo luminescent solution was added to each well, and shaken for 2 min. After standing at room temperature for 10 min, the absorbance was measured using an enzyme-linked immunosorbent assay (ELISA). […] A is the group without necrosis-inducing agents, and B is the group with necrosis-inducing agents.

[1] = system: human colon cancer cells HT-29; test: Inhibition of necrosis of HT-29 cells induced by TNF-α (CellTiter-Glo); type: cell-based; conditions: TNF-α 100 ng/ml + AT-406 1 μM + z-VAD-FMK 20 μM, 24 h
Experimental: as §1, with “ELISA.” for “an enzyme-linked immunosorbent assay (ELISA).”, “agents. […] A is the group without necrosis-inducing agents, B is the group with necrosis-inducing agents, and X is the group with compounds and necrosis-inducing agents.” for “agents.”

[2] = system: human pancreatic cancer cells PANC-1; test: Inhibition of necrosis of PANC-1 cells induced by TNF-α (CellTiter-Glo); type: cell-based; conditions: TNF-α 100 ng/ml + AT-406 1 μM + z-VAD-FMK 20 μM, 24 h
Experimental: as §1, with “ELISA.” for “an enzyme-linked immunosorbent assay (ELISA).”, “agents. […] A is the group without necrosis-inducing agents, B is the group with necrosis-inducing agents, and X is the group with compounds and necrosis-inducing agents.” for “agents.”

human RIP1 kinase = human RIP1 kinase (Homo sapiens (Human), UniProt Q13546); test: Inhibitory activity on RIP1 kinase (ADP-Glo); type: biochemical; conditions: human RIP kinase 25 nM
Sequence of human RIP1 kinase (Q13546 whole entry): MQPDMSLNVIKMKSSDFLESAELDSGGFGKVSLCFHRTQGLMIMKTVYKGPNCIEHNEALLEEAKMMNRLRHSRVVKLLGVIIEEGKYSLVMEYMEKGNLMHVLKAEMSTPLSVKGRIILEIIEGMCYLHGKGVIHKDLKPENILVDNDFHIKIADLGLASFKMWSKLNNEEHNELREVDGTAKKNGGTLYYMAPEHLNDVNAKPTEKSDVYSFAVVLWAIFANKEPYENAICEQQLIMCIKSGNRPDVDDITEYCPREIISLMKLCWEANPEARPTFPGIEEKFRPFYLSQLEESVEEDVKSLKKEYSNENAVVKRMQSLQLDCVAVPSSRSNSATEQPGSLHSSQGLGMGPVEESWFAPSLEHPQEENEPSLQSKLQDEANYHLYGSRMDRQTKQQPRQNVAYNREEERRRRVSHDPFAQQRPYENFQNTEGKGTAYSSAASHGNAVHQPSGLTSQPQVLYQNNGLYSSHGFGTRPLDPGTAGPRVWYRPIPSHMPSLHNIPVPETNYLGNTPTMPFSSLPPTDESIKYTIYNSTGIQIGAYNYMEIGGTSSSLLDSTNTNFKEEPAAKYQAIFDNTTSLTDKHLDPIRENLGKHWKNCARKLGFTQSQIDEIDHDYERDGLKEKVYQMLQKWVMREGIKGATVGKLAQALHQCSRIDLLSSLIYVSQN
Experimental: The compound of the present invention and the control compound were dissolved in the assay buffer (50 mM Hepes pH 7.5, 50 mM NaCl, 30 mM MgCl2, 1 mM DTT, 0.02% CHAPS, 0.5 mg/mL BSA), and diluted in a ratio of 1:1.5 using a 22-point titration (high concentration 2 μM), and then added to a 384-well plate. […] After completion of the reaction, 5 μL of ADP-Glo reagent containing 0.02% CHAPS was added to each well and incubated at room temperature for 1 h to terminate the kinase reaction and use up all remaining ATP. Then, 5 μL of ADP-Glo detection solution containing 0.02% CHAPS was added to each well and incubated at room temperature for 30 min to measure the emittance intensity. For each ATP concentration, the activity data was obtained by the emittance intensity minus the control intensity.

Row | Compound | IC50 (U937 cells) [nM] | IC50 ([1]; Homo sapiens, HT-29) [nM] | IC50 ([2]; Homo sapiens, PANC-1) [nM] | IC50 (human RIP1 kinase) [nM] | also measured
1 | C[C@H]1Oc2ccc(C#CCN3CCN(CC#Cc4ccc5c(c4)N(C)C(=O)[C@@H](NC(=O)c4n[nH]c(Cc6ccccc6)n4)[C@@H](C)O5)CC3)cc2N(C)C(=O)[C@H]1NC(=O)c1n[nH]c(Cc2ccccc2)n1 [Compound I-2] | 4.47 | 13 | 24.4 | – | IC50 (HacaT cells): 3.89 nM
2 | CN1C(=O)[C@@H](NC(=O)c2n[nH]c(Cc3ccccc3)n2)COc2ccc(C#CCN3CCN(CC#Cc4ccc5c(c4)N(C)C(=O)[C@@H](NC(=O)c4n[nH]c(Cc6ccccc6)n4)CO5)CC3)cc21 [Compound I-11] | 2.09 | 10.8 | 20.4 | – | IC50 (HacaT cells): 2.97 nM
3 | [2H]C([2H])([2H])N1C(=O)[C@@H](NC(=O)c2n[nH]c(Cc3ccccc3)n2)[C@@H](C)Oc2ccc(C#CCN3CCN(CC#C)CC3)cc21 [Compound I-14] | – | – | – | 4.52 | –
4 | [2H]C([2H])([2H])N1C(=O)[C@@H](NC(=O)c2n[nH]c(Cc3ccccc3)n2)[C@@H](C)Oc2ccc(C#CCN3CCN(CC#Cc4ccc5c(c4)N(C([2H])([2H])[2H])C(=O)[C@@H](NC(=O)c4n[nH]c(Cc6ccccc6)n4)[C@@H](C)O5)CC3)cc21 [Compound I-15] | – | – | – | 4.88 | –
5 | C[C@H]1Oc2ccc(C#CCN3CCN(CC#Cc4ccc5c(c4)N(C)C(=O)[C@@H](NC(=O)c4ncn(Cc6ccccc6)n4)[C@@H](C)O5)CC3)cc2N(C)C(=O)[C@H]1NC(=O)c1ncn(Cc2ccccc2)n1 [Compound I-23] | 5.91 | 26.4 | 17.8 | – | IC50 (HacaT cells): 2.68 nM
6 | CN1C(=O)[C@@H](NC(=O)c2ncn(Cc3ccccc3)n2)COc2ccc(C#CCN3CCN(CC#Cc4ccc5c(c4)N(C)C(=O)[C@@H](NC(=O)c4ncn(Cc6ccccc6)n4)CO5)CC3)cc21 [Compound I-30] | 4.89 | 16.6 | 16 | 2.62 | IC50 (HacaT cells): 4.07 nM
7 | [2H]C([2H])([2H])N1C(=O)[C@@H](NC(=O)c2ncn(Cc3ccccc3)n2)[C@@H](C)Oc2ccc(C#CCN3CCN(CC#C)CC3)cc21 [Compound I-35] | – | – | – | 5.89 | –
8 | C[C@H]1Oc2ccc(C#CCN3CCN(CC#Cc4ccc5c(c4)NC(=O)[C@@H](NC(=O)c4ncn(Cc6ccccc6)n4)[C@@H](C)O5)CC3)cc2NC(=O)[C@H]1NC(=O)c1ncn(Cc2ccccc2)n1 [Compound I-38] | – | – | – | 4.18 | –
9 | C#CCN1CCN(CC#Cc2ccc3c(c2)N(C)C(=O)[C@@H](NC(=O)c2ncn(Cc4ccccc4)n2)[C@H](C)O3)CC1 [Compound I-39] | – | – | – | 79 | –
10 | C[C@@H]1Oc2ccc(C#CCN3CCN(CC#Cc4ccc5c(c4)N(C)C(=O)[C@@H](NC(=O)c4ncn(Cc6ccccc6)n4)[C@@H](C)O5)CC3)cc2N(C)C(=O)[C@H]1NC(=O)c1ncn(Cc2ccccc2)n1 [Compound I-40] | – | – | – | 66.3 | –
11 | CN1C(=O)[C@@H](NC(=O)c2n[nH]c(Cc3ccccc3)n2)COc2ccc(C#CCCCCC#Cc3ccc4c(c3)N(C)C(=O)[C@@H](NC(=O)c3n[nH]c(Cc5ccccc5)n3)CO4)cc21 [Compound I-80] | – | – | – | 8.85 | –
12 | C[C@H]1Oc2ccc(C#CCOCCOCCOCCOCCOCC#CC#CCOCCOCCOCCOCCOCC#Cc3ccc4c(c3)N(C)C(=O)[C@H](NC(=O)c3ncn(Cc5ccccc5)n3)[C@@H](C)O4)cc2N(C)C(=O)[C@@H]1NC(=O)c1ncn(Cc2ccccc2)n1 [Compound I-89] | – | – | – | 7.44 | –
13 | CN1C(=O)[C@H](NC(=O)c2ncn(Cc3ccccc3)n2)COc2ccc(C#CCOCCOCCOCCOCCOCC#CC#CCOCCOCCOCCOCCOCC#Cc3ccc4c(c3)N(C)C(=O)[C@H](NC(=O)c3ncn(Cc5ccccc5)n3)CO4)cc21 [Compound I-90] | – | – | – | 6.29 | –
14 | COCCOCCOCCOCCOCC#Cc1ccc2c(c1)N(C)C(=O)[C@@H](NC(=O)c1n[nH]c(Cc3ccccc3)n1)CO2 [Compound I-100] | 3.14 | 8.65 | 12.5 | – | IC50 (HacaT cells): 2.39 nM
15 | COCCOCCOCCOCCOCC#Cc1ccc2c(c1)N(C)C(=O)[C@@H](NC(=O)c1ncn(Cc3ccccc3)n1)[C@@H](C)O2 [Compound I-101] | 5.62 | 10.1 | 13.7 | – | IC50 (HacaT cells): 2.95 nM
16 | COCCOCCOCCOCCOCC#Cc1ccc2c(c1)N(C)C(=O)[C@@H](NC(=O)c1ncn(Cc3ccccc3)n1)CO2 [Compound I-102] | 2.08 | 7.92 | 13.8 | – | IC50 (HacaT cells): 3.58 nM
17 | CC(O)C#Cc1ccc2c(c1)N(C)C(=O)[C@@H](NC(=O)c1ncn(Cc3ccccc3)n1)[C@@H](C)O2 (stereo partly drawn) [Compound I-104] | – | – | – | 10.2 | –
18 | C[C@H]1Oc2ccc(C#Cc3ccncc3)cc2N(C)C(=O)[C@H]1NC(=O)c1n[nH]c(Cc2ccccc2)n1 [Compound I-109] | – | 13.1 | 12.6 | – | –
19 | C[C@H]1Oc2ccc(C#Cc3ccncc3)cc2N(C)C(=O)[C@H]1NC(=O)c1ncn(Cc2ccccc2)n1 [Compound I-110] | – | 10.9 | 11.1 | – | –
20 | C[C@H]1Oc2ccc(C#Cc3cccnc3)cc2N(C)C(=O)[C@H]1NC(=O)c1n[nH]c(Cc2ccccc2)n1 [Compound I-111] | – | 13.7 | 12.4 | – | –
21 | C[C@H]1Oc2ccc(C#Cc3cccnc3)cc2N(C)C(=O)[C@H]1NC(=O)c1ncn(Cc2ccccc2)n1 [Compound I-112] | – | – | – | 7.21 | IC50 [1]: 10 nM; IC50 [2]: 11.3 nM
22 | C[C@H]1Oc2ccc(C#Cc3cccc(N)c3)cc2N(C)C(=O)[C@H]1NC(=O)c1n[nH]c(Cc2ccccc2)n1 [Compound I-117] | – | – | – | 12.7 | –
23 | C#Cc1ccc2c(c1)N(C)C(=O)[C@@H](NC(=O)c1nc(Cc3ccccc3)n[nH]1)[C@@H](C)O2 [Compound I-119] | 3.19 | 15.3 | 17.1 | – | –
24 | C#Cc1ccc2c(c1)N(C)C(=O)[C@@H](NC(=O)c1ncn(Cc3ccccc3)n1)[C@@H](C)O2 [Compound I-120] | 4.05 | 14.6 | 15.7 | – | –
25 | CN1C(=O)[C@@H](NC(=O)c2ncn(Cc3ccccc3)n2)COc2ccc(CCCN3CCN(CCCc4ccc5c(c4)N(C)C(=O)[C@@H](NC(=O)c4ncn(Cc6ccccc6)n4)CO5)CC3)cc21 [Compound I-121] | 6.12 | – | – | – | –
26 | C[C@H]1Oc2ccc(CCCN3CCN(CCCc4ccc5c(c4)N(C)C(=O)[C@@H](NC(=O)c4ncn(Cc6ccccc6)n4)[C@@H](C)O5)CC3)cc2N(C)C(=O)[C@H]1NC(=O)c1ncn(Cc2ccccc2)n1 [Compound I-122] | 7.14 | – | – | – | –
27 | CN1C(=O)[C@@H](NC(=O)c2n[nH]c(Cc3ccccc3)n2)COc2ccc(CCCN3CCN(CCCc4ccc5c(c4)N(C)C(=O)[C@@H](NC(=O)c4n[nH]c(Cc6ccccc6)n4)CO5)CC3)cc21 [Compound I-123] | 4.45 | – | – | – | –
28 | C[C@H]1Oc2ccc(CCCN3CCN(CCCc4ccc5c(c4)N(C)C(=O)[C@@H](NC(=O)c4n[nH]c(Cc6ccccc6)n4)[C@@H](C)O5)CC3)cc2N(C)C(=O)[C@H]1NC(=O)c1n[nH]c(Cc2ccccc2)n1 [Compound I-124] | 6.75 | – | – | – | –
29 | CN1C(=O)[C@@H](NC(=O)c2n[nH]c(Cc3ccccc3)n2)COc2ccccc21 [Control compound 3, reference compound] | 7.15 | > 100 | 51.3 | – | IC50 (HacaT cells): 9.92 nM
